These results are taken from a melting point compilation (Tetko et al.; mined from patent text by program, amines drawn as free bases though some values may be those of a salt).

On to `O=C(O)CCCc1cc2nc(Cl)ccc2n1S(=O)(=O)c1ccc(-c2cnco2)cc1`, for which the melting point lay in the range of 169 to 176 °C. Take `O=C(CNC(=O)c1nc2cccc(OC(F)(F)F)c2cc1OCc1ccccc1)OCc1ccccc1`: the melting point is 123 to 124 °C. The result for `Cc1nc2ccccc2cc1NC(=O)N1CCN(c2cccc3ccccc23)CC1` reads 220 to 222 °C. The result for `Nc1sc2c(c1C(=O)c1ccco1)CCN(Cc1ccccc1)C2` reads 112 to 117 °C; that for `CCCNCc1nc(-c2ncn3c2[C@@H]2CCN2C(=O)c2c(Cl)cccc2-3)no1`, 237 to 239 °C; that for `CCCN1C(=O)COc2ccc(N3C(=O)C(C)=C(C)C3O)cc21` (stereo not drawn), 124 to 125 °C. The result for `c1cn(-c2ccc3nc(-c4ccc5c(c4)OCCO5)ncc3c2)cn1` reads 132 °C. In the case of `Nc1cccnc1-c1ccccc1`, the melting point lay within 59 to 62 °C. `C(#Cc1cccnc1)C1=CCN(Cc2c[nH]c3ncccc23)CC1` returned a melting point of 170 to 172 °C. Turning to `CS(=O)(=O)Nc1ccc([N+](=O)[O-])cn1`, the melting point was 217 to 220 °C. The result for `CC1(C)CCC(C)(C)c2cc(NC(=O)c3ccccc3)ccc21` reads 146 to 148 °C; that for `CCOc1nn(Cc2ccc(OCc3cccnc3)cc2)cc1CCC(=O)O`, 120 to 121 °C; that for `CNS(=O)(=O)c1ccc(Oc2ccc(NC(C)=O)cc2)cc1`, 183 to 184 °C. The result for `O=C(O)c1ccccc1COc1ccccc1Br` reads 175 to 177 °C; that for `C=CCNc1nc(NCC=C)nc(N2CCNCC2)n1`, 93 to 94.5 °C. In the case of `CCOC(=O)C1=C(C)N2CCNC2=C(C(=O)OCC)C1c1cccc2ccccc12` (stereo not drawn) it was 169 to 170 °C; in that of `COc1ccc2cc([C@H](C)C(=O)OCC(=O)N(C)CC(=O)OCCO[N+](=O)[O-])ccc2c1`, 71 to 73 °C. The compound `CN(C)C1(c2cccc(F)c2)CCC2(OCCc3c2[nH]c2ccccc32)C(CNC(=O)C=Cc2cccc(-c3ccccc3)c2)C1` (stereo not drawn) yielded a melting point of 134 to 140 °C.

For the compound `COc1ccc(-c2ccc(OC)cc2[N+](=O)[O-])cc1`, the melting point lay in the range of 122 to 124 °C.

`CCOCc1nc2c(N)nc3cc(OCC(=O)N4CCOCC4)ccc3c2n1CC(C)(C)O` had a melting point of 209 to 211 °C. `N#CCOc1ccc2cc(-c3csc(-c4ccccc4)n3)ccc2c1` came in with a melting point of 113 to 117 °C. On to `O=C(Cc1ccc(F)cc1)Nc1ccc(-n2nc(C(F)(F)F)cc2C2CC2)cc1`, for which the melting point lay within 135 to 140 °C. The result for `C=CCc1ccc2c(c1)CCC2O` (stereo not drawn) reads 54 °C. Compound `CCOC(=O)C12CC1CN(S(=O)(=O)c1ccc(C)cc1)C2c1ccccc1` (stereo not drawn) had a melting point of 123 to 124 °C. In the case of `O=C1CCC(CN2C(=O)C3(COc4cc5c(cc43)OCO5)c3ccccc32)N1` (stereo not drawn) it was 121 to 130 °C; in that of `CCCCc1cc(=O)c(C(=O)OCC)cn1Cc1ccc(-c2ccccc2-c2nnn[nH]2)cc1`, 119 to 120 °C. `COc1ccc2c(c1)C(c1ccccc1)NC(=S)N2CC1CC1` (stereo not drawn) had a melting point of 146 to 147 °C. `CC(=O)Nc1ccc(C(=S)SCC(=O)O)cc1` registered a melting point of 224 to 226 °C.

For the compound `COC(=O)[C@@]12CO[C@@H](C(C)(C)C)N1C(=O)[C@](Cc1ccccc1)(C(=O)O)C2`, the melting point was > 133 °C. The result for `O=c1[nH]c2ccc(F)cc2c2cc(CO)nn12` reads 295 to 297 °C; that for `Cc1c(C(N)=O)c2ccccc2n2c(N(C)C)nc(-c3noc(C4CC4)n3)c12`, 190 to 192 °C. In the case of `CC(=O)c1cc2c(cc1NC(=O)c1sccc1S(=O)(=O)Nc1onc(C)c1Cl)OCO2` it was 191 to 193 °C. The result for `O=C(Nc1ccc2c(c1)CCC2)C(=O)N1CCC(Cc2ccc(F)cc2)CC1` reads 150 to 152 °C. With `CS(=O)(=O)c1ccc(Br)cc1[N+](=O)[O-]`, the melting point is 175 to 177 °C. With `CC(C)C(NC(=O)c1ccccc1)C(O)C(F)(F)F` (stereo not drawn), the melting point was 150 °C. In turn, `CCOc1nc(C(F)(F)F)cc(=O)n1-c1cc(OC)c(Cl)cc1F` came in with a melting point of 117 to 119 °C. In the case of `CCOC(=O)C1=C(C)NC(C)=C(C(=O)OCC)C1c1nc(-c2ccc(OC)cc2)c(-c2ccc(OC)cc2)s1` it was 177 to 178 °C; in that of `CCc1cccc(C)c1CNc1nc(C(=O)N(C)C)cc2[nH]c(C)nc12`, 207 to 208 °C; in that of `CCCCOc1c(CNC(=O)OC(C)(C)C)n(CC(C)C)c(=O)c2ccc(-c3nc(C)c(C(=O)O)s3)cc12`, 107 to 109 °C.

`C[C@@H](CO)COc1ccc(-c2ccc(Cl)nn2)cc1` came in with a melting point of 134 to 138 °C. As for `Cc1ccc(S(=O)(=O)N2CCCC(S(=O)(=O)c3cccc(Cl)c3)C2)cc1` (stereo not drawn), the melting point lay within 282 to 284 °C. Compound `CCc1[nH]n(C2CCCC2)c2nc(-c3cccc(OCC(=O)O)c3)nc(=O)c1-2` gave a melting point of 299 to 300 °C. The result for `COc1cc(O)c2c(=O)c(OC)c(-c3ccc(O)cc3OC)oc2c1` reads 191 to 192 °C; that for `Brc1cccc2c1SSSSS2`, 93 to 98 °C; that for `CC1CN(C(=O)CCl)c2ccccc21` (stereo not drawn), 78 to 79 °C.

On to `N#CCc1ccc(Cl)cc1C(=O)O`, for which the melting point was 120 °C. Compound `O=C(CBr)c1ccc(Cl)c(S(=O)(=O)Nc2ccccc2)c1` showed a melting point of 154 °C.

In turn, `Cc1cc(Oc2ncc(C(F)(F)F)cc2Cl)nn1C(=O)Nc1ccc(C(F)(F)F)cc1` had a melting point of 164 to 167 °C. In the case of `CC1OC(Cc2cccc3c2C(=O)c2ccccc2C3=O)CC(N)C1O` (stereo not drawn) it was > 280 °C. The result for `CC1(C)Oc2cc3nonc3cc2C(NC(=O)NCCCl)C1O` (stereo not drawn) reads 178 to 180 °C; that for `O=C(NCC1CCCCC1)c1c(Cl)ccc2nc(N3CCC(c4nnn[nH]4)CC3)ccc12`, 252 to 255 °C; that for `CN(C)C(=O)n1ccc(-c2ccc(Oc3ccc(F)cc3)cc2)n1`, 59 to 63 °C.

Turning to `C#CCCC(=O)N1CCC(=Cc2ccc(C3=NCCO3)cc2)CC1`, the melting point was 118 °C.

For the compound `O=C(NCc1ccccc1Cl)c1cccnc1Oc1cccc(F)c1`, the melting point is 115 to 117 °C. In the case of `NS(=O)(=O)c1cc(C(=O)O)cc([N+](=O)[O-])c1Nc1cccc(C(F)(F)F)c1` it was 213 to 215 °C. The result for `Cc1nc2c(Cl)cc(F)c([N+](=O)[O-])c2s1` reads 130 to 132 °C. For the compound `OCc1cc(N2CCOCC2)ncn1`, the melting point amounted to 138 °C. Take `CCC(COC(=O)c1ccc(N)c(Cl)c1OC)(c1cccs1)N(C)C` (stereo not drawn): the melting point lay in the range of 110 to 112 °C. In the case of `O=C(O)COc1cccc(OCCC(c2ccccc2)(c2ccccc2)c2ccccc2)c1` it was 69 to 71 °C; in that of `CCOC(=O)C1(N)N=C(c2ccccc2Cl)c2cc(CC)sc2-n2c(C)nnc21` (stereo not drawn), 180 to 181 °C.

`CC(C)(C)[Si](C)(C)Oc1ccc(C(=O)Oc2ccc(C(=O)O)cn2)cc1C12CC3CC(CC(C3)C1)C2` gave a melting point of 188 to 190 °C. On to `Cc1oc(C=Cc2ccccc2Cl)nc1CC(=O)O`, for which the melting point was 148 to 149 °C.

In the case of `COc1ccc(-c2cc(=O)n(Cc3ccc(F)c(F)c3)nc2-c2ccc(OC)cc2)cc1`, the melting point lay in the range of 155 to 156 °C. The compound `OCc1ccccc1NCc1cc2c(cc1O)CCO2` gave a melting point of 149 to 150 °C. `COc1ccc2c(=O)[nH]c(-c3ccc(OCCNC(C)C)c(-c4ccc(S(C)(=O)=O)cc4)n3)nc2c1`: the melting point was 204 to 205 °C. On to `COc1cc2c(cc1OC)CN(CCCc1ccc(NC(=O)c3cccc4c(=O)c5cccc(OC)c5[nH]c34)cc1)CC2`, for which the melting point came out at 135 °C.

The compound `O=C(CCC(=O)N1CCCCC1c1ccccc1)c1ccc2c(c1)CCNCC2` (stereo not drawn) had a melting point of 114 °C. Take `O=c1c2ccccc2ncn1C1CCN(CCCc2ccccc2)CC1`: the melting point was 107 to 108 °C. The compound `CC(=O)OC1CC2(C)C(=O)CCC2C2CCC3=CC(=O)C=CC3(C)C12F` (stereo not drawn) came in with a melting point of 177 to 178 °C. In the case of `CCCCCNC(=O)c1ccc(Cl)nn1` it was 98 to 101 °C. The result for `CCOC(=O)/C=C(C)/C=C/C=C(C)/C=C(/F)c1c(C)cc(OC)c(C)c1C` reads 74 to 87 °C; that for `Cc1cccc(-c2nc3cccnn3c2-c2ccnc(NC(=O)N3CCc4ccccc4C3)c2)c1`, 122 to 124 °C; that for `CC(=O)Nc1ccc(-c2cc(-c3ccc(NC(C)=O)cc3C)cc(-c3ccc(NC(C)=O)cc3C)c2)c(C)c1`, 180 °C.

`OCc1ccc(-c2ccc(OCc3ccccc3)cc2)cc1` registered a melting point of 194 to 195 °C.

In turn, `O=C(O)C(CCCCCc1ccc(Cl)cc1)S(=O)(=O)c1cccc(Cl)c1` (stereo not drawn) returned a melting point of 104 to 106 °C. The result for `CC1CCCC(C)N1S(=O)(=O)N[C@@H](Cc1ccc(Nc2nccc3cnccc23)cc1)C(=O)O` (stereo partly drawn) reads 204 °C; that for `CCC(C)COC(=O)Oc1ccc(-c2ccc(OC(=O)OCC(C)CC)cc2)cc1` (stereo not drawn), 85.5 °C; that for `CN(C(=O)OC(C)(C)C)c1cc(Oc2ccc(C#N)cc2)ccc1[N+](=O)[O-]`, 141 to 143 °C. In the case of `CCOC(=O)c1cc(-c2ccccc2)nn1Cc1ccc(Cl)cc1Cl` it was 104 to 107 °C; in that of `CC(C)(C)CC(C)(C)c1ccc(Oc2cc(N)c(O)cc2[N+](=O)[O-])cc1`, 187 to 189 °C. `COC(=O)C1=C(C)Nc2ncnc(OC(C)C)c2C1c1cccc([N+](=O)[O-])c1` (stereo not drawn) returned a melting point of 218 to 219 °C. In turn, `O=C(O)c1ccc2c(c1)Cc1cccnc1O2` had a melting point of 285 to 286 °C. The result for `COc1ccc(N2CCC(c3cnc(N)nc3N)CC2)cc1` reads 224 to 225 °C. In the case of `CCC(CC)Nc1cc(C)nc(Cl)c1[N+](=O)[O-]` it was 82 to 84 °C; in that of `COC(=O)c1sccc1COC(C)=O`, 42 to 43 °C. As to `CC1=Nc2c(nc(N)[nH]c2=O)NC1C` (stereo not drawn), the melting point is > 300 °C. The result for `N#Cc1ccc(OCc2ccc(C=Cc3ccncc3)cc2)cc1` reads 149 to 150 °C. The result for `O=C1NC2CCC(=O)N2[C@H]1CO` (stereo partly drawn) reads 61 to 75 °C.
